Species: Rattus norvegicus
Test: DrugMatrix - Regimen: Daily Repeat
Assay type: toxicity, organism-based, Sprague-Dawley
Design: regimen Daily Repeat, gender Male, age 6-8 weeks
Conditions: in vivo, po, route oral GAVAGE, […]; for ABSOLUTE BASOPHIL / ABSOLUTE EOSINOPHIL / ABSOLUTE LYMPHOCYTE / ABSOLUTE MONOCYTE / ABSOLUTE SEGMENTED NEUTROPHIL / BASOPHIL / EOSINOPHIL / ERYTHROCYTE COUNT / HEMATOCRIT / HEMOGLOBIN / LEUKOCYTE COUNT / LYMPHOCYTE / MEAN CORPUSCULAR HEMOGLOBIN / MEAN CORPUSCULAR HEMOGLOBIN CONCENTRATION / MEAN CORPUSCULAR VOLUME / MONOCYTE / NEUTROPHIL / NUCLEATED RED BLOOD CELLS / PLATELET COUNT: tissue Blood; for ALANINE AMINOTRANSFERASE / ALBUMIN / ALKALINE PHOSPHATASE / ASPARTATE AMINOTRANSFERASE / BLOOD UREA NITROGEN / CARBON DIOXIDE / CHLORIDE / CHOLESTEROL / CREATINE PHOSPHOKINASE / CREATININE / GLUCOSE / LACTATE DEHYDROGENASE / LIPASE / PHOSPHORUS / POTASSIUM / SODIUM / TOTAL BILIRUBIN / TOTAL PROTEIN / URIC ACID: tissue Plasma
[1] = 13 mg/kg, 120 h, dose level Low, time 5 day
[2] = 40 mg/kg, 72 h, dose level High, time 3 day
[3] = 40 mg/kg, 120 h, dose level High, time 5 day

CN(C)c1nc(N(C)C)nc(N(C)C)n1 [ALTRETAMINE]
ABSOLUTE BASOPHIL [1]: 0 CELLS/uL
ABSOLUTE EOSINOPHIL [1]: 0 CELLS/uL
ABSOLUTE LYMPHOCYTE [1]: 9932 CELLS/uL
ABSOLUTE MONOCYTE [1]: 0 CELLS/uL
ABSOLUTE SEGMENTED NEUTROPHIL [1]: 334.67 CELLS/uL
BASOPHIL [1]: 0%
EOSINOPHIL [1]: 0%
ERYTHROCYTE COUNT [1]: 5.3 x10E6/uL
HEMATOCRIT [1]: 32.5%
HEMOGLOBIN [1]: 12.67 G/DL
LEUKOCYTE COUNT [1]: 10.27 x10E3/uL
LYMPHOCYTE [1]: 96.33%
MEAN CORPUSCULAR HEMOGLOBIN [1]: 23.93 pg
MEAN CORPUSCULAR HEMOGLOBIN CONCENTRATION [1]: 38.97 G/DL
MEAN CORPUSCULAR VOLUME [1]: 61.4 fL
MONOCYTE [1]: 0%
NEUTROPHIL [1]: 3.67%
NUCLEATED RED BLOOD CELLS [1]: 0 /100WBC
PLATELET COUNT [1]: 759.33 x10E3/uL
ALANINE AMINOTRANSFERASE [1]: 60.67 u/L
ALBUMIN [1]: 4.13 G/DL
ALKALINE PHOSPHATASE [1]: 323.67 u/L
ASPARTATE AMINOTRANSFERASE [1]: 87 u/L
BLOOD UREA NITROGEN [1]: 13.33 mg/dL
CARBON DIOXIDE [1]: 29.67 mmol/L
CHLORIDE [1]: 98 MEQ/L
CHOLESTEROL [1]: 69.67 mg/dL
CREATINE PHOSPHOKINASE [1]: 230.33 u/L
CREATININE [1]: 0.15 mg/dL
GLUCOSE [1]: 150 mg/dL
LACTATE DEHYDROGENASE [1]: 137.67 u/L
LIPASE [1]: 22 u/L
PHOSPHORUS [1]: 10.3 mg/dL
POTASSIUM [1]: 5.84 MEQ/L
SODIUM [1]: 143.3 MEQ/L
TOTAL BILIRUBIN [1]: 0.1 mg/dL
TOTAL PROTEIN [1]: 5.83 G/DL
URIC ACID [1]: 0.87 mg/dL
ABSOLUTE BASOPHIL [2]: 0 CELLS/uL
ABSOLUTE EOSINOPHIL [2]: 41 CELLS/uL
ABSOLUTE LYMPHOCYTE [2]: 13401 CELLS/uL
ABSOLUTE MONOCYTE [2]: 108.67 CELLS/uL
ABSOLUTE SEGMENTED NEUTROPHIL [2]: 749.33 CELLS/uL
BASOPHIL [2]: 0%
EOSINOPHIL [2]: 0.33%
ERYTHROCYTE COUNT [2]: 5.98 x10E6/uL
HEMATOCRIT [2]: 37.43%
HEMOGLOBIN [2]: 14.53 G/DL
LEUKOCYTE COUNT [2]: 14.3 x10E3/uL
LYMPHOCYTE [2]: 93.67%
MEAN CORPUSCULAR HEMOGLOBIN [2]: 24.33 pg
MEAN CORPUSCULAR HEMOGLOBIN CONCENTRATION [2]: 38.83 G/DL
MEAN CORPUSCULAR VOLUME [2]: 62.7 fL
MONOCYTE [2]: 0.67%
NEUTROPHIL [2]: 5.33%
NUCLEATED RED BLOOD CELLS [2]: 0 /100WBC
PLATELET COUNT [2]: 1084 x10E3/uL
ALANINE AMINOTRANSFERASE [2]: 107.67 u/L
ALBUMIN [2]: 4.17 G/DL
ALKALINE PHOSPHATASE [2]: 335.33 u/L
ASPARTATE AMINOTRANSFERASE [2]: 98.67 u/L
BLOOD UREA NITROGEN [2]: 12.33 mg/dL
CARBON DIOXIDE [2]: 26.33 mmol/L
CHLORIDE [2]: 100.67 MEQ/L
CHOLESTEROL [2]: 73 mg/dL
CREATINE PHOSPHOKINASE [2]: 457.67 u/L
CREATININE [2]: 0.17 mg/dL
GLUCOSE [2]: 160.67 mg/dL
LACTATE DEHYDROGENASE [2]: 170.67 u/L
LIPASE [2]: 10.67 u/L
PHOSPHORUS [2]: 10.97 mg/dL
POTASSIUM [2]: 6.05 MEQ/L
SODIUM [2]: 140.73 MEQ/L
TOTAL BILIRUBIN [2]: 0.2 mg/dL
TOTAL PROTEIN [2]: 5.73 G/DL
URIC ACID [2]: 1.97 mg/dL
ABSOLUTE BASOPHIL [3]: 0 CELLS/uL
ABSOLUTE EOSINOPHIL [3]: 0 CELLS/uL
ABSOLUTE LYMPHOCYTE [3]: 8752.67 CELLS/uL
ABSOLUTE MONOCYTE [3]: 0 CELLS/uL
ABSOLUTE SEGMENTED NEUTROPHIL [3]: 580.67 CELLS/uL
BASOPHIL [3]: 0%
EOSINOPHIL [3]: 0%
ERYTHROCYTE COUNT [3]: 5.98 x10E6/uL
HEMATOCRIT [3]: 36.53%
HEMOGLOBIN [3]: 14.1 G/DL
LEUKOCYTE COUNT [3]: 9.33 x10E3/uL
LYMPHOCYTE [3]: 94.33%
MEAN CORPUSCULAR HEMOGLOBIN [3]: 23.67 pg
MEAN CORPUSCULAR HEMOGLOBIN CONCENTRATION [3]: 38.6 G/DL
MEAN CORPUSCULAR VOLUME [3]: 61.23 fL
MONOCYTE [3]: 0%
NEUTROPHIL [3]: 5.67%
NUCLEATED RED BLOOD CELLS [3]: 0 /100WBC
PLATELET COUNT [3]: 779.67 x10E3/uL
ALANINE AMINOTRANSFERASE [3]: 65.33 u/L
ALBUMIN [3]: 4 G/DL
ALKALINE PHOSPHATASE [3]: 406 u/L
ASPARTATE AMINOTRANSFERASE [3]: 87.67 u/L
BLOOD UREA NITROGEN [3]: 12.67 mg/dL
CARBON DIOXIDE [3]: 34 mmol/L
CHLORIDE [3]: 97.67 MEQ/L
CHOLESTEROL [3]: 55.33 mg/dL
CREATINE PHOSPHOKINASE [3]: 274.33 u/L
CREATININE [3]: 0.15 mg/dL
GLUCOSE [3]: 151 mg/dL
LACTATE DEHYDROGENASE [3]: 133.67 u/L
LIPASE [3]: 10 u/L
PHOSPHORUS [3]: 10.63 mg/dL
POTASSIUM [3]: 5.18 MEQ/L
SODIUM [3]: 142.9 MEQ/L
TOTAL BILIRUBIN [3]: 0.17 mg/dL
TOTAL PROTEIN [3]: 5.77 G/DL
URIC ACID [3]: 0.47 mg/dL

— ChEMBL document CHEMBL3885881, “DrugMatrix”
